Assay results reported in US12698308B2, “Peptide for preventing or treating inflammatory diseases” (AJOU UNIVERSITY INDUSTRY-ACADEMIC COOPERATION FOUNDATION, priority 2021, dated 2026).
Ends that are not written are not given here.

Columns and labels:
IL-1 beta = assay: Genetic analysis via real-time PCR in vitro, cytokine expression in cultured cells; format: cell-based, mouse; conditions: for cytokine IL-1 beta in the spleen: peptide treatment 24 hours, FIG. 2D; for cytokine IL-1 beta in the lymph node: FIG. 2H
IL-17 = assay: as above; format: cell-based, mouse; conditions: for cytokine IL-17 in the lymph node: FIG. 2E; for cytokine IL-17 in the spleen: peptide treatment 24 hours, FIG. 2A
Description: (§1) While culturing spleen cells isolated from the spleen of 4-week-old male ICR mice weighing 25 g, various types of peptides having lipidized at terminus of the peptides were treated to cells, and changes in cytokine expression were observed via real-time PCR. Spleen cell isolation was performed by cutting out the spleen from mice, placing the spleen on a cell filter, crushing the spleen on a Petri dish through the cell filter using the plunger tip of a syringe, rinsing the cell filter with PBS, and transferring the suspended cells to 15 mL conical tube. Cells were centrifuged at 4° C. and 800×g for 5 minutes. Subsequently, the supernatant was discarded, and the pellets were resuspended in 1 mL of ACK buffer (ammonium-chloride-potassium lysing buffer). After leaving at room temperature for 5 to 10 minutes, […] of PBS at 4° C. was added, and the cells were centrifuged again at 4° C. and 800×g for 5 minutes. The supernatant was discarded again, the pellets were resuspended in 5 mL of culture, and 2×10^6 cells/mL were cultured in DMEM medium. Before culturing spleen cells in an incubator, 1 μg/mL anti-CD3 Ab was coated on the bottom of a culture container, after 24 hours, culture was performed for 3 days in DMEM medium including 1 μg of anti-CD28 Ab, 20 ng of IL-6, 5 ng of TGF beta, and 20 ng of IL-23 per 1 mL of culture medium, and then the peptides were treated, followed by culture for another 24 hours.

TNF-alpha = assay: as above; format: cell-based, mouse; conditions: for cytokine TNF-alpha in the spleen: peptide treatment 24 hours, FIG. 2C; for cytokine TNF-alpha in the lymph node: FIG. 2G
Description: as §1

[1] = tested on: arthritis model mice (collagen induced arthritis, CIA); assay: Ankle thickness in collagen induced arthritis (CIA) mice; format: in vivo, mouse; conditions: at day 30, compared to arthritis mice (control) without receiving peptides; FIGS. 9A-9B
Description: (§2) Collagen was mixed with an adjuvant and injected subcutaneously into the tail twice (Day 1 and Day 11) to prepare arthritis model mice. The adjuvant is a mixture of 17 μL of high-concentration paraffin oil (Fisher, cat. no. 0122-1) and 68 μg (17 μL) of complete Freund adjuvant (CFA; Sigma-Aldrich, cat. no. F5881), which was used by mixing with 34 μg (17 μL) of bovine type II collagen (MD bioproducts cat. no. 804001-Sol). From the day after the second collagen injection (day 12), 1 μg (100 μL) of peptide was administered intramuscularly to the hind legs 10 times (once every 2 days), and mouse peripheral blood cells were isolated to analyze the frequency of Ly6G+ cells via flow cytometry. Peripheral blood cells were isolated from mouse hearts, red blood cells were lysed in ACK buffer (ammonium-chloride-potassium lysing buffer), and then centrifugation was performed to collect only blood cells to be used for antibody staining for the analysis with the flow cytometer. Using Ly6G+ as a neutrophil marker, whether the peptide inhibits a frequency of inflammation-induced neutrophil cells in an arthritis model was determined. Methotrexate (MTX) was used as a control drug.
Since the thickness of the ankle increases due to edema caused by arthritis, the ankle thickness was measured to determine whether peptide administration may relieve edema caused by inflammation. The ankle thickness was measured with a digital caliper at the thickest part of the ankle.

ROR-gammaT gene = assay: Genetic analysis via real-time PCR in vitro, gene expression in cultured cells; format: cell-based, mouse; conditions: for expression of ROR-gammaT gene in the lymph node: FIG. 2F
Description: as §1

[2] = tested on: mice with Behçet's disease; assay: Skin symptom improvement in mice with Behçet's disease; format: in vivo; conditions: external agent on skin, 1 μg/mouse once a day for 10 days; FIG. 6
Description: After applying the peptide-including external agent used in the Experimental Example 5 to the skin of mice with Behçet's disease, changes in the symptom improvement were checked. Administration was performed by 1 μg/mouse once a day for 10 days.

Ly6G+ (neutrophil) cells = assay: Frequency of Ly6G+ (neutrophil) cells in peripheral blood of collagen induced arthritis (CIA) mice; format: in vivo, mouse; conditions: 1 μg intramuscularly 10 times (once every 2 days), FIG. 8
Description: as §2

Substance | cytokine IL-1 beta in the spleen (IL-1 beta) | cytokine IL-17 in the lymph node (IL-17) | cytokine IL-17 in the spleen (IL-17) | cytokine TNF-alpha in the spleen (TNF-alpha) | cytokine TNF-alpha in the lymph node (TNF-alpha) | thickness of the ankle [1] | expression of ROR-gammaT gene in the lymph node (ROR-gammaT gene) | skin symptom improvement [2] | frequency of Ly6G+ cells (Ly6G+ (neutrophil) cells) | cytokine IL-1 beta in the lymph node (IL-1 beta) | expression of ROR-gammaT gene in the spleen (ROR-gammaT gene; spleen, peptide treatment 24 hours, FIG. 2B)
P1M: P1 peptide (SEQ ID NO: 1) with myristoylation, component of P124-M (LICPEKYCNKVHT; cysteine pairing not given here; also: myristoylation) [Peptide P1M] | reduced |  |  |  |  |  |  |  |  |  | 
P2M: P2 peptide (SEQ ID NO: 2) with myristoylation, component of P124-M (YCNKVHTCRNG; cysteine pairing not given here; also: myristoylation) [Peptide P2M] |  | reduced | reduced | reduced |  |  |  |  |  |  | 
P4M: P4 peptide (SEQ ID NO: 3) with myristoylation, component of P124-M (HTCRNGENICF; cysteine pairing not given here; also: myristoylation) [Peptide P4M] | reduced | reduced |  | reduced |  |  |  |  |  |  | 
LTCLICPEKYCNKVHTCRNGENICF (SEQ ID NO: 5) (E2) [Peptide E2] | reduced | reduced | reduced | reduced | reduced | significantly reduced | reduced | improved the skin erythema |  |  | 
LICPEKYCNKVHTCRNGENICF (SEQ ID NO: 4) (E1) [Peptide E1] | reduced | reduced | reduced | reduced |  | significantly reduced | reduced | the symptom almost disappeared after 10 days | decreased to a statistically significant level | reduced | 
GCAATCPEAKPREIVECCSTDKCNH (SEQ ID NO: 7) (E4) [Peptide E4] |  |  |  |  |  |  |  | almost disappeared after 10 days, and the wound healed |  |  | 
TCPEAKPREIVECCSTDKCNH (SEQ ID NO: 6) (E3) [Peptide E3] | reduced | reduced | reduced | reduced | reduced | significantly reduced | reduced |  |  | reduced | reduced
